Measured values from patent US20240192237A1 (curantis UG, priority 2021, published 2024).

Legend:
[1] = system: patients with schizophrenia; test: PANSS assessment in clinical trials CBD-CT1 and CBD-PT; format: in vivo; details: for PANSS Positive Score: baseline 22.9 ± 4.3; for PANSS Negative Score: baseline 22.5 ± 6.0; for PANSS General Score: baseline 45.0 ± 8.2; for PANSS Total Score: baseline 90.4 ± 14.1
Excerpt: The Ethics Committee of the Faculty of Medicine of University of Cologne approved the clinical trial with application number 00-074 on Aug. 6, 2000.
All randomized patients complied with all inclusion and exclusion criteria: age between 18 and 50, male and female, persisting inpatient hospitalization, specific DSM-IV diagnoses, initial Brief Psychiatric Rating Scale (BPRS) score≥36, understanding of the study objectives and the course of the study, legal capacity, no pregnancy or lactation phase, reliable contraception.
CBD was administered as an oral dose in a capsule formulation. The dose was increased during the first week from 200 mg/d to 800 mg/d (4×200 mg) and remained at this level for the rest of the study period. Due to serious unwanted effects, the dose could be reduced irreversibly to 600 mg/d starting with day 15. […] Dose applications, blood sampling, and assessment of PANSS followed the time schedule presented below. Additional treatment with 7.5 mg lorazepam per day during the whole study period was permitted.
On 28 Jul. 2005 this clinical trial with application number 04-153 was approved by the Ethics Committee of the Faculty of Medicine of University of Cologne.
Eighteen patients with a diagnosis of schizophrenia or schizophreniform disorder should be included in this trial per protocol. Because dropouts had to be replaced by a new patient a total number of 29 patients was randomized from February 2006 to June 2008. All randomized patients complied with all inclusion and exclusion criteria: age between 18 and 65, male and female, specific DSM-IV diagnoses, initial BPRS score≥36, no pregnancy or lactation phase, reliable contraception, no lack of accountability, no other relevant interferences, no treatment with depot-antipsychotics during the last three months, no severe internal or neurological illness, no QTc prolongation, no acute suicidality nor endangerment of others by the patient. […] Treatment lasted four weeks: the first period with two weeks of CBD or placebo treatment was followed by a second period with a two-week treatment of placebo or CBD, respectively. There was no washout period between the two treatments. […] The dose could be reduced irreversibly to 400 mg/d in case of serious unwanted effects. […] The PANSS was applied at baseline and day 14 and 28. Dose applications, blood sampling, and assessment of PANSS followed the time schedule presented below. Additional treatment with 5.0 mg lorazepam per day during the whole study period was permitted.
The Positive and Negative Syndrome Scale (PANSS) is a psychopathological scale and was developed to assess the symptom severity in patients with schizophrenia. It was first described by Kay et al. in 1987 (Kay S R, Fiszbein A, Opler L A. “The positive and negative syndrome scale (PANSS) for schizophrenia”. Schizophrenia bulletin. 1987; 13(2):261-276.) and includes 30 questions which are a combination of 18 items of the BPRS and 12 items of the Psychopathology Rating Schedule ([…]) (see Leucht S, Kane J M, Kissling W, Hamann J, Etschel E, Engel R R. “What does the PANSS mean?” Schizophrenia research. 2005; 79(2-3):231-238.) All questions are rated on a 7-point scale from 1=absence of symptoms to 7=extremely distinct symptoms. Therefore, the PANSS total score (sum score of all 30 items) can range from 30 to 210. Here applies: the lower the PANSS score the better/healthier is the patient.
The positive scale contains delusion, disorganized thoughts, hallucination, excitement, grandiosity, suspiciousness/persecution, and animosity. Blunted affect, emotional withdrawal, poor rapport, passive/apathetic social withdrawal, difficulty in abstract thinking, stereotyped thinking, lack of spontaneity, and flow of conversation are part of the negative scale. […]

[2] = system: patients with schizophrenia; test: Estimated correlation between CBD plasma concentration and percentage change of PANSS score at day 14; format: in vivo; details: for Estimated CBD plasma concentration, PANSS_N, average / Estimated CBD plasma concentration, PANSS_P, average / Estimated CBD plasma concentration, PANSS_T, average / Estimated CBD plasma concentration, PANSS_G, average: two weeks after commencement
Excerpt: In general, it is expected that a percentage change of 50% of the PANSS score(s) vis-à-vis the baseline score after four to six weeks of treatment indicates a significant improvement of the PANSS score(s) (see Correll C. U., “Quantifying clinical relevance in the treatment of schizophrenia, Clinical Therapeutics”, Vol. 33, Number 12, 2011, B16-B39).
Since the PANSS score(s) cover symptoms experienced or observed during the preceding 7 days, the minimum required observation period is one week. To avoid an overlap to the observation of initial symptoms, a treatment period of 2 weeks is considered a minimum reliable period. Therefore, we analyzed the treatment effect after 2 weeks of treatment. Due to the analyzed shortened treatment period a percentage change of 25% of the PANSS score(s) vis-à-vis the baseline score indicates a significant improvement of the PANSS score(s).

For `C=C(C)[C@@H]1CCC(C)=C[C@H]1c1c(O)cc(CCCCC)cc1O` [CBD, cannabidiol], the “PANSS Positive Score” value ([1]; Day 14, mean, SD 4.5, N 36) was 18.9, the “PANSS Negative Score” value ([1]; Day 14, mean, SD 5.6, N 36) was 19.0 and the “PANSS General Score” value ([1]; Day 14, mean, SD 9.6, N 36) was 38.9. The “PANSS Total Score” value ([1]; Day 14, mean, SD 17.0, N 36 (CT1 17|PT 19), oral CBD capsules 800 mg/d (CT1) or 600 mg/d (PT)) was 76.9, the “PANSS Positive Score” value ([1]; Day 28, mean, SD 5.4, N 24) was 16.9 and the “PANSS Negative Score” value ([1]; Day 28, mean, SD 6.2, N 24) was 16.1. For the same compound, the “PANSS General Score” value ([1]; Day 28, mean, SD 13.1, N 24) was 35.9, the “PANSS Total Score” value ([1]; Day 28, mean, SD 23.2, N 24 (CT1 14|PT 10)) was 68.9 and the “Estimated CBD plasma concentration, PANSS_N, average” value ([2]; PANSS delta 10% vs baseline, range (12.9; 28.9)) was 17.8 µg/L. The “Estimated CBD plasma concentration, PANSS_P, average” value ([2]; PANSS delta 10% vs baseline, range (13.0; 35.7)) was 19.1 µg/L, the “Estimated CBD plasma concentration, PANSS_T, average” value ([2]; PANSS delta 10% vs baseline, range (13.4; 25.5)) was 17.5 µg/L and the “Estimated CBD plasma concentration, PANSS_N, average” value ([2]; PANSS delta 20% vs baseline, range (25.7; 57.7)) was 35.6 µg/L. The “Estimated CBD plasma concentration, PANSS_P, average” value ([2]; PANSS delta 20% vs baseline, range (26.0; 71.4)) was 38.2 µg/L, the “Estimated CBD plasma concentration, PANSS_G, average” value ([2]; PANSS delta 20% vs baseline, range (26.6; 49.2)) was 34.5 µg/L and the “Estimated CBD plasma concentration, PANSS_T, average” value ([2]; PANSS delta 20% vs baseline, range (26.7; 50.9)) was 35.0 µg/L. The “Estimated CBD plasma concentration, PANSS_N, average” value ([2]; PANSS delta 25% vs baseline, range (32.2; 72.1)) was 44.5 µg/L, the “Estimated CBD plasma concentration, PANSS_P, average” value ([2]; PANSS delta 25% vs baseline, range (32.5; 89.3)) was 47.7 µg/L and the “Estimated CBD plasma concentration, PANSS_G, average” value ([2]; PANSS delta 25% vs baseline, range (33.2; 61.5)) was 43.1 µg/L. The “Estimated CBD plasma concentration, PANSS_T, average” value ([2]; PANSS delta 25% vs baseline, range (33.4; 63.7)) was 43.8 µg/L, the “Estimated CBD plasma concentration, PANSS_N, average” value ([2]; PANSS delta 30% vs baseline, range (38.6; 86.6)) was 53.4 µg/L and the “Estimated CBD plasma concentration, PANSS_P, average” value ([2]; PANSS delta 30% vs baseline, range (39.1; 107.1)) was 57.2 µg/L. The “Estimated CBD plasma concentration, PANSS_G, average” value ([2]; PANSS delta 30% vs baseline, range (39.8; 73.8)) was 51.8 µg/L, the “Estimated CBD plasma concentration, PANSS_T, average” value ([2]; PANSS delta 30% vs baseline, range (40.1; 76.4)) was 52.6 µg/L and the “Estimated CBD plasma concentration, PANSS_N, average” value ([2]; PANSS delta 40% vs baseline, range (51.5; 115.4)) was 71.2 µg/L. The “Estimated CBD plasma concentration, PANSS_P, average” value ([2]; PANSS delta 40% vs baseline, range (52.1; 142.8)) was 76.3 µg/L, the “Estimated CBD plasma concentration, PANSS_G, average” value ([2]; PANSS delta 40% vs baseline, range (53.1; 98.4)) was 69.0 µg/L and the “Estimated CBD plasma concentration, PANSS_T, average” value ([2]; PANSS delta 40% vs baseline, range (53.4; 101.9)) was 70.1 µg/L. For the same compound, the “Estimated CBD plasma concentration, PANSS_N, average” value ([2]; PANSS delta 50% vs baseline, range (64.3; 144.3)) was 89.0 µg/L, the “Estimated CBD plasma concentration, PANSS_P, average” value ([2]; PANSS delta 50% vs baseline, range (65.1; 178.5)) was 95.4 µg/L and the “Estimated CBD plasma concentration, PANSS_G, average” value ([2]; PANSS delta 50% vs baseline, range (66.4; 123.0)) was 86.3 µg/L. The “Estimated CBD plasma concentration, PANSS_T, average” value ([2]; PANSS delta 50% vs baseline, range (66.8; 127.3)) was 87.6 µg/L, the “Estimated CBD plasma concentration, PANSS_P, average” value ([2]; PANSS delta 60% vs baseline, range (78.1; 214.2)) was 114.5 µg/L and the “Estimated CBD plasma concentration, PANSS_G, average” value ([2]; PANSS delta 60% vs baseline, range (79.7; 147.6)) was 103.5 µg/L. The “Estimated CBD plasma concentration, PANSS_T, average” value ([2]; PANSS delta 60% vs baseline, range (80.1; 152.8)) was 105.1 µg/L, the “Estimated CBD plasma concentration, PANSS_N, average” value ([2]; PANSS delta 70% vs baseline, range (90.1; 202.0)) was 124.6 µg/L and the “Estimated CBD plasma concentration, PANSS_P, average” value ([2]; PANSS delta 70% vs baseline, range (91.1; 249.9)) was 133.6 µg/L. The “Estimated CBD plasma concentration, PANSS_G, average” value ([2]; PANSS delta 70% vs baseline, range (93.0; 172.2)) was 120.8 µg/L, the “Estimated CBD plasma concentration, PANSS_T, average” value ([2]; PANSS delta 70% vs baseline, range (93.5; 178.3)) was 122.6 µg/L and the “Estimated CBD plasma concentration, PANSS_N, average” value ([2]; PANSS delta 75% vs baseline, range (96.5; 216.4)) was 133.5 µg/L. The “Estimated CBD plasma concentration, PANSS_P, average” value ([2]; PANSS delta 75% vs baseline, range (97.6; 267.8)) was 143.1 µg/L, the “Estimated CBD plasma concentration, PANSS_G, average” value ([2]; PANSS delta 75% vs baseline, range (99.6; 184.5)) was 129.4 µg/L and the “Estimated CBD plasma concentration, PANSS_T, average” value ([2]; PANSS delta 75% vs baseline, range (100.1; 191.0)) was 131.4 µg/L. For the same compound, the “Estimated CBD plasma concentration, PANSS_N, average” value ([2]; PANSS delta 80% vs baseline, range (102.9; 230.8)) was 142.4 µg/L, the “Estimated CBD plasma concentration, PANSS_P, average” value ([2]; PANSS delta 80% vs baseline, range (104.1; 285.6)) was 152.6 µg/L and the “Estimated CBD plasma concentration, PANSS_G, average” value ([2]; PANSS delta 80% vs baseline, range (106.3; 196.8)) was 138.0 µg/L. For the same compound, the “Estimated CBD plasma concentration, PANSS_T, average” value ([2]; PANSS delta 80% vs baseline, range ([…]; 203.7)) was 140.2 µg/L, the “Estimated CBD plasma concentration, PANSS_N, average” value ([2]; PANSS delta 90% vs baseline, range (115.8; 259.7)) was 160.2 µg/L and the “Estimated CBD plasma concentration, PANSS_P, average” value ([2]; PANSS delta 90% vs baseline, range (117.2; 321.3)) was 171.7 µg/L. The “Estimated CBD plasma concentration, PANSS_G, average” value ([2]; PANSS delta 90% vs baseline, range (119.5; 221.4)) was 155.3 µg/L, the “Estimated CBD plasma concentration, PANSS_T, average” value ([2]; PANSS delta 90% vs baseline, range (120.2; 229.2)) was 157.7 µg/L and the “Estimated CBD plasma concentration, PANSS_N, average” value ([2]; PANSS delta 100% vs baseline, range (128.7; 288.5)) was 178.0 µg/L. For the same compound, the “Estimated CBD plasma concentration, PANSS_P, average” value ([2]; PANSS delta 100% vs baseline, range (130.2; 357.0)) was 190.8 µg/L, the “Estimated CBD plasma concentration, PANSS_G, average” value ([2]; PANSS delta 100% vs baseline, range (132.8; 246.0)) was 172.5 µg/L and the “Estimated CBD plasma concentration, PANSS_T, average” value ([2]; PANSS delta 100% vs baseline, range (133.5; 254.6)) was 175.2 µg/L. The “CBD plasma concentration that results in the required percentage change (25%) of the PANSS score(s)” value ([2]; after 2 weeks of treatment) was “at least 25 μg/l”.
